Data published in US12637418B2, “Heterocyclic compounds as antagonist of NMDA” (TAKEDA PHARMACEUTICAL COMPANY LIMITED, priority 2019, dated 2026).

Legend:
[1] = continuous intravenous administration; cited from earlier work
[2] = rodents; cited from earlier work
[3] = tested on: NMDA receptor containing NR2B subunit (NMDA receptor expressed in the hippocampus tissue); experiment: In vivo [^3H]MK-801 binding test; set-up: species or system Sprague Dawley rats; details: [^3H]MK-801 binding inhibitory rate, rat hippocampus, vehicle 100%, MK-801 maleate 0%
Method: In Vivo [^3H]MK-801 Binding Test
To confirm the “functionally antagonistic action in vivo for NMDA receptor containing NR2B subunit” that the compound of the present invention has, a binding test was performed using a tritium-labeled form of MK-801 ((5R,10S)-5-methyl-10,11-dihydro-5H-5,10-epiminodibenzo[a,d][7]annulene) ([^3H]MK-801) which is a compound that binds to the gate of the NMDA receptor.
An Example compound (1 mg/kg/2 mL, 0.5% MC water) or vehicle ([…], 0.5% MC water) was orally administered (p.o.) to Sprague Dawley rats (body weight 180-260 g). After a certain period of time (near the time when the maximum blood concentration was reached), [^3H]MK-801 (20 μCi/kg/mL, Muromachi Kikai Co., Ltd.) was intravenously administered from the tail vein. […] 10 mL of liquid scintillator A (Fujifilm Wako Pure Chemical Corporation) was added, and the residual radioactivity was measured by a liquid scintillation counter (ALOKA LSC-6100). The residual radioactivity of 100 μL of the homogenate before filtration through the glass filter was also measured in the same manner. By calculating [residual radioactivity in filter/residual radioactivity in 100 μL of homogenate], correction by the dose of [^3H]MK-801 was performed, and the value was used as a binding ratio of [^3H]MK-801 in the NMDA receptor expressed in the hippocampus tissue of each individual. […]

[4] = target: NMDA receptor composed of four subunits including 2 sets of heterodimers of NR1 and NR2B (human GRIN1 and GRIN2B expressed in HEK293 cell) (Homo sapiens, UniProt Q13224); experiment: NR2B Ca^2+ influx assay; format: cell-based; details: 10 μM final compound concentration; 30 μM glutamic acid and 30 μM glycine; HEK293 cells expressing GRIN1 and GRIN2B; Fluo-4 fluorescence; read-out: inhibitory rate (10 μM compound concentration)
Chain of NMDA receptor composed of four subunits including 2 sets of heterodimers of NR1 and NR2B (human GRIN1 and GRIN2B expressed in HEK293 cell) (Q13224 27-1484, other chains not shown): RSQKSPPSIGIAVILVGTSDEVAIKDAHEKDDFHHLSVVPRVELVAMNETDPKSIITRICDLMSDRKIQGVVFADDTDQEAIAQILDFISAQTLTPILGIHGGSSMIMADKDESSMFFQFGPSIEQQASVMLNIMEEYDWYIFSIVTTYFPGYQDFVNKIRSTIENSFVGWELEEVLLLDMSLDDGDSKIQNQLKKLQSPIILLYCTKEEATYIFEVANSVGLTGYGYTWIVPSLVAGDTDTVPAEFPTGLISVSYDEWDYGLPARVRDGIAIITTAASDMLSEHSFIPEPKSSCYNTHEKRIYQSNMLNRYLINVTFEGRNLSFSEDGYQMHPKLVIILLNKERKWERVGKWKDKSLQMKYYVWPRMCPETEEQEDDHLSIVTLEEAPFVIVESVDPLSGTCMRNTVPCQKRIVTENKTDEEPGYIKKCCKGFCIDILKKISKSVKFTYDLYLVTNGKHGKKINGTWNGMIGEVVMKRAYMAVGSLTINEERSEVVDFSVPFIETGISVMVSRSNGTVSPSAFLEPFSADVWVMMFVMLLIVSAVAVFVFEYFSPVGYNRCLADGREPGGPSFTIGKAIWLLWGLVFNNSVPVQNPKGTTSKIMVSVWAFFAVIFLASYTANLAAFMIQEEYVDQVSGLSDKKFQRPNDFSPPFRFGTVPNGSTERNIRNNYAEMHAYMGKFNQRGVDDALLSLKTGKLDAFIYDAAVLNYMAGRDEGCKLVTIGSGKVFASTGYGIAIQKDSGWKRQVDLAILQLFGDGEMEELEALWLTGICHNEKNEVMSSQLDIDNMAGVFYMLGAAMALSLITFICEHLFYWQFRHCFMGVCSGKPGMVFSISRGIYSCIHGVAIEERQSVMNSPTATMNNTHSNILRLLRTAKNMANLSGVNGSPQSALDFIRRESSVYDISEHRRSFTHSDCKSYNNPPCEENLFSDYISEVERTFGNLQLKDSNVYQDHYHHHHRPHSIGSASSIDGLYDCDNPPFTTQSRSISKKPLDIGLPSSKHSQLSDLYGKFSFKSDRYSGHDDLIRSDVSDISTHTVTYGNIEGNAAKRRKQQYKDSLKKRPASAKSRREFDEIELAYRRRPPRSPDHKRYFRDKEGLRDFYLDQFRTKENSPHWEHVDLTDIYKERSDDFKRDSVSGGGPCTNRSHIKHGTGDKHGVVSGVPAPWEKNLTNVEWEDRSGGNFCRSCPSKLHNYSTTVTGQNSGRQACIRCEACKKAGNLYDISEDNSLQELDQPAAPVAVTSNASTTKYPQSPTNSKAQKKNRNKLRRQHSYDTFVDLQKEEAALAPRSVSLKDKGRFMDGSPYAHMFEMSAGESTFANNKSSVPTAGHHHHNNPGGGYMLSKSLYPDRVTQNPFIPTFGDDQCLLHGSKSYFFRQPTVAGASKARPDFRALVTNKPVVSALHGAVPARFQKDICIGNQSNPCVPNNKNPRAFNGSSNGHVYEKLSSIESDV
From the text: To confirm the “antagonistic action on an NMDA receptor containing the NR2B subunit” of the compound of the present invention, human embryonic kidney cell expressing the “NMDA receptor composed of four subunits including 2 sets of heterodimers of NR1 and NR2B”, specifically HEK293 cell expressing human glutamate ionotropic receptor NMDA type subunit 1 (GRIN1) and human glutamate ionotropic receptor NMDA type subunit 2B (GRIN2B), was used and the activation suppressive effect on the receptors was measured.
HEK293 cells that express GRIN1 and GRIN2B were purchased from ChanTest (Human NMDA (NR1/NR2B) Receptor-expressing, stable replicating cell line (HEK293) catalog No. CT6121).
As an index of the NMDA receptor activation, intracellular calcium ion (Ca^2+) influx caused by the binding of glycine and glutamic acid with NR1 and NR2B, respectively, was used.
HEK293 cells that express GRIN1 and GRIN2B were cultured in DMEM/F-12 (COSMO BIO, 10-092-CM) medium added with 10% FBS (fetal bovine serum, AusGene), 100 units/mL penicillin, 100 μg/mL streptomycin, 500 μg/mL neomycin, 100 μg/mL Zeocin (registered trade mark, Invitrogen), 5 μg/mL Blasticidin in a cell culture flask in an incubator (under 37° C., 5% CO2).
The cells were detached from the flask with trypsin the day before the assay, suspended in a seeding medium (DMEM (Invitrogen, 31053) added with 10% FBS, 100 units/mL penicillin, 100 μg/mL streptomycin) at 8×10^5 cells/mL, seeded by 25 μL per well in a 384-well plate (Falcon, 356663) at 20000 cells/well, and cultured overnight in an incubator. On the day of the assay, tetracycline (Wako Pure Chemical Industries, Ltd., 209-16561) was diluted with the seeding medium at 2 μg/mL, added at 25 μL/well to the plate seeded with the cells, and cultured for 2 hr in an incubator. Thereafter, the medium was removed, and the cells were washed with 50 μL/well assay buffer (137 mM NaCl, 4 mM KCl, 1.8 mM CaCl2, 10 mM HEPES (pH 7.2), 10 mM Glucose, 0.1% BSA). Then, a loading buffer (assay buffer added with 2.5 μM Fluo-4AM, 2 mM Amaranth, 1 mM Tartrazine) was added at 25 μL/well, and the cells were incubated in the incubator for 30 min, and at room temperature for 15 min. A solution of the Example compound diluted with the above-mentioned assay buffer at 30 μM (final concentration 10 μM) was added at 25 μL/well, and the cells were left standing for 15 min at room temperature. Using FDSS7000EX/μCELL (Hamamatsu Photonics K.K.), an assay buffer containing 30 μM glutamic acid and 30 μM glycine was added at 25 μL/well, and fluorescence signals with wavelengths of Excitation 480 nm and Emission 540 nm were measured every 3 seconds for 5 min. The inhibitory activity was calculated as a relative activity value (inhibitory rate) that inhibits 100% of the cumulative value of the fluorescence value of a well added with an assay buffer free of glutamic acid, glycine, relative to the cumulative value of the fluorescence value of each well.

[5] = in vivo; cited from earlier work
[6] = intravenous single administration; cited from earlier work
[7] = in vivo; cited from earlier work; remark: listed apart in the source

## C[C@@H]([C@@H](O)c1ccc(O)cc1)N1CCC(O)(c2ccccc2)CC1 [CP-101, 606]
[1]
  treatment resistant-depression symptom: significantly improves treatment resistant-depression symptom
[2]
  number of occurrence and depth of cortical spreading depression: suppress the number of occurrence and the depth of cortical spreading depression

## COc1ncc(C#N)cc1CNC(=O)c1cnc(OC(F)F)c(F)c1 [Example 9, N-[(5-cyano-2-methoxypyridin-3-yl)methyl]-6-(difluoromethoxy)-5-fluoropyridine-3-carboxamide]
[3]
  inhibitory rate (1 mg/kg, p.o.): 10%
[4]
  inhibition at 10 µM: 94%

## COc1ccc(C#N)c(F)c1CNC(=O)c1cnc(OC(F)F)c(F)c1 [Example 17, N-[(3-cyano-2-fluoro-6-methoxyphenyl)methyl]-6-(difluoromethoxy)-5-fluoropyridine-3-carboxamide]
[3]
  inhibitory rate (1 mg/kg, p.o.): 17%
[4]
  inhibition at 10 µM: 96%

## CC(C(O)c1ccc(O)cc1)N1CCC(Cc2ccccc2)CC1 (stereo not drawn) [Ifenprodil]
[5]
  pain sense threshold: the pain sense threshold increases

## CNC1(c2ccccc2Cl)CCCCC1=O (stereo not drawn) [ketamine]
[6]
  depression symptoms accompanying major depression and bipolar disorder: improves depression symptoms accompanying major depression and bipolar disorder rapidly and in a sustained manner

## CC12CC3CC(C)(C1)CC(N)(C3)C2 [memantine]
[7]
  peripheral symptoms of dementia: partially improves peripheral symptoms of dementia
